Laboratory results published in PubChem BioAssay (NCI).
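Where inhibition never reached the appropriate level, the endpoint shown equals the highest concentration tested. Otherwise, values were interpolated linearly from a five-concentration, 48-hour dose response in 96-well plates. Definition used: TGI = concentration required for complete inhibition of growth.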

How the values were obtained:
Experiment in all cases: NCI-60 cell line screen, 48 h
NCI-H460 lung = test system: NCI-H460 lung
M14 melanoma = test system: M14 melanoma
HCC-2998 colon = test system: HCC-2998 colon
HT29 colon = test system: HT29 colon
SK-MEL-5 melanoma = test system: SK-MEL-5 melanoma
SK-MEL-2 melanoma = test system: SK-MEL-2 melanoma
CCRF-CEM leukemia = test system: CCRF-CEM leukemia
MALME-3M melanoma = test system: MALME-3M melanoma
ACHN renal = test system: ACHN renal
HOP-92 NSCLC = test system: HOP-92 NSCLC
OVCAR-3 ovarian = test system: OVCAR-3 ovarian
DU-145 prostate = test system: DU-145 prostate
HOP-62 NSCLC = test system: HOP-62 NSCLC
786-0 renal = test system: 786-0 renal
CAKI-1 renal = test system: CAKI-1 renal
K-562 leukemia = test system: K-562 leukemia
NCI-H522 lung = test system: NCI-H522 lung

Compound	TGI (NCI-H460 lung) [µM]	TGI (M14 melanoma) [µM]	TGI (HCC-2998 colon) [µM]	TGI (HT29 colon) [µM]	TGI (SK-MEL-5 melanoma) [µM]	TGI (SK-MEL-2 melanoma) [µM]	TGI (CCRF-CEM leukemia) [µM]	TGI (MALME-3M melanoma) [µM]	TGI (ACHN renal) [µM]	TGI (HOP-92 NSCLC) [µM]	TGI (OVCAR-3 ovarian) [µM]	TGI (DU-145 prostate) [µM]	TGI (HOP-62 NSCLC) [µM]	TGI (786-0 renal) [µM]	TGI (CAKI-1 renal) [µM]	TGI (K-562 leukemia) [µM]	TGI (NCI-H522 lung) [µM]
Cc1cc(=O)[nH]c(NN2C(Cl)C(=O)C2c2ccc(Cl)cc2)n1 (stereo unspecified)	31.1	28.9	32.1	54.9	25.7	46.4	5.67	32.3	> 56.4	27.7	30.3	66.6	48.6	33	30.7	16.2	
CC1CC[C@@H](C(C)C)[C@H](Oc2nnc(C3OC(CO)C(O)C3O)o2)C1 (stereo partly specified)	> 100		> 100	> 100	> 100	> 100	> 100	> 100	> 100	> 100	> 100	> 100	> 100	> 100	> 100	> 100	
C1=NCCNCCN=Cc2ccc(cc2)OCc2cccc(n2)COc2ccc1cc2	> 100	> 100		> 100	> 100	> 100	> 100	> 100	68.7	> 100	> 100	> 100	52.9	> 100	> 100	> 100	> 100
N#C/C(=C\c1ccccc1)C(=O)Nc1nnc(-c2ccccc2)o1		> 100	> 100	> 100	38.3	> 100	50.6	> 100	> 100	> 100	66.3	> 100	> 100	> 100	73.2	> 100	> 100
CC12Nc3ccccc3N1C(=O)c1ccccc12 (stereo unspecified)	> 100	> 100	> 100	> 100	> 100	> 100	> 100		> 100	> 100	> 100	> 100	> 100	> 100	> 100	> 100	> 100
O=C(O[C@H]1[C@@H](O)[C@H](n2cnc3c(Cl)ncnc32)O[C@@H]1COC(c1ccccc1)(c1ccccc1)c1ccccc1)c1ccccc1	64.9	> 100	41.9	62.1	31.8	49.7	> 100		31	44.8	35	3.85	51.7	58.1	10.1	> 100	91.5
CN(C(=O)Cc1cc(Cl)c(Cl)cc1N=C=S)[C@H]1CCCC[C@@H]1N1CCCC1	22	29.6		18.7	27.8	29.2	7.32	31.8	28.7	21.9	29.6	27.8	27.9	25.5	29.2	5.89	27.7
